# Laboratory results: EP0041644B1 (priority 1980, dated 1981)
# Tests used:
# L1210 Leukemia [1] = test: L1210 Leukemia - Test 1 (survival of tumor-bearing mice); assay type: in vivo; conditions: for Effect MST % T/C / MST Days: d. 1 only
# Excerpt: This evaluation of the ammonium salt finds the drug to be active against L1210 (ip) leukemia when administered ip one day post-implant of 10^6 L1210 cells (maximum T/C was 164%). […] The vehicle for the ammonium salt was water.
# L1210 Leukemia [2] = test: L1210 Leukemia - Test 3 (vehicle comparison); assay type: in vivo, mice; conditions: for Effect MST % T/C / MST Days: Day 1 only
# B16 Melanoma [3] = test: B16 Melanoma - Test 1 (ip tumor brei); assay type: in vivo, mice; conditions: for Effect MST % T/C / MST Days: QD 1→9, vehicle H2O
# B16 Melanoma [4] = test: B16 Melanoma - Test 2 (ip tumor brei); assay type: in vivo, mice; conditions: QD +9
structure (smiles),measurement,setting,value
"[NH2][Pt]1([NH2])[O]C(=O)C([O-])C(=O)[O]1.[NH4+] [Example 1, 2-Hydroxymalonato diammine platinum (II), ammonium salt]",Effect MST % T/C,L1210 Leukemia [1]; 10 mg/kg/day ip,136 % T/C
same,MST Days,L1210 Leukemia [1]; 10 mg/kg/day ip,9.5 days
same,Effect MST % T/C,L1210 Leukemia [1]; 20 mg/kg/day ip,129 % T/C
same,MST Days,L1210 Leukemia [1]; 20 mg/kg/day ip,9.0 days
same,Effect MST % T/C,L1210 Leukemia [1]; 40 mg/kg/day ip,143 % T/C
same,MST Days,L1210 Leukemia [1]; 40 mg/kg/day ip,10.0 days
same,Effect MST % T/C,L1210 Leukemia [1]; 60 mg/kg/day ip,157 % T/C
same,MST Days,L1210 Leukemia [1]; 60 mg/kg/day ip,11.0 days
same,Effect MST % T/C,L1210 Leukemia [1]; 80 mg/kg/day ip,157 % T/C
same,MST Days,L1210 Leukemia [1]; 80 mg/kg/day ip,11.0 days
same,Effect MST % T/C,L1210 Leukemia [1]; 100 mg/kg/day ip,164 % T/C
same,MST Days,L1210 Leukemia [1]; 100 mg/kg/day ip,11.5 days
same,maximum T/C,"L1210 Leukemia [1]; ip one day post-implant of 10^6 L1210 cells, vehicle water",164%
same,Effect MST % T/C,"L1210 Leukemia [2]; 40 mg/kg ip, vehicle H2O",143 % T/C
same,MST Days,"L1210 Leukemia [2]; 40 mg/kg ip, vehicle H2O",10.0 days
same,Effect MST % T/C,"L1210 Leukemia [2]; 40 mg/kg ip, vehicle Saline",114 % T/C
same,MST Days,"L1210 Leukemia [2]; 40 mg/kg ip, vehicle Saline",8.0 days
same,Effect MST % T/C,"L1210 Leukemia [2]; 60 mg/kg ip, vehicle H2O",143 % T/C
same,MST Days,"L1210 Leukemia [2]; 60 mg/kg ip, vehicle H2O",10.0 days
same,Effect MST % T/C,"L1210 Leukemia [2]; 60 mg/kg ip, vehicle Saline",100 % T/C
same,MST Days,"L1210 Leukemia [2]; 60 mg/kg ip, vehicle Saline",7.0 days
same,Effect MST % T/C,"L1210 Leukemia [2]; 80 mg/kg ip, vehicle H2O",143 % T/C
same,MST Days,"L1210 Leukemia [2]; 80 mg/kg ip, vehicle H2O",10.0 days
same,Effect MST % T/C,"L1210 Leukemia [2]; 80 mg/kg ip, vehicle Saline",114 % T/C
same,MST Days,"L1210 Leukemia [2]; 80 mg/kg ip, vehicle Saline",8.0 days
same,Effect MST % T/C,"L1210 Leukemia [2]; 100 mg/kg ip, vehicle H2O",107 % T/C
same,MST Days,"L1210 Leukemia [2]; 100 mg/kg ip, vehicle H2O",7.5 days
same,Effect MST % T/C,"L1210 Leukemia [2]; 100 mg/kg ip, vehicle Saline",143 % T/C
same,MST Days,"L1210 Leukemia [2]; 100 mg/kg ip, vehicle Saline",10.0 days
same,Maximum increase in median lifespan (T/C),"L1210 Leukemia [2]; single dose ip, saline and water as vehicles",143%
same,Effect MST % T/C,B16 Melanoma [3]; 4 mg/kg/day ip,192 % T/C
same,MST Days,B16 Melanoma [3]; 4 mg/kg/day ip,37.5 days
same,Effect MST % T/C,B16 Melanoma [3]; 8 mg/kg/day ip,190 % T/C
same,MST Days,B16 Melanoma [3]; 8 mg/kg/day ip,37.0 days
same,Effect MST % T/C,B16 Melanoma [3]; 16 mg/kg/day ip,121 % T/C
same,MST Days,B16 Melanoma [3]; 16 mg/kg/day ip,"23,5 Days"
same,Effect MST % T/C,B16 Melanoma [3]; 24 mg/kg/day ip,36 % T/C
same,MST Days,B16 Melanoma [3]; 24 mg/kg/day ip,7.0 days
same,Effect MST % T/C,B16 Melanoma [3]; 32 mg/kg/day ip,31 % T/C
same,MST Days,B16 Melanoma [3]; 32 mg/kg/day ip,6.0 days
same,maximum T/C,"B16 Melanoma [3]; ip B16, ip QD 1→9",190%
same,Water-solubility at room temperature,,10000 µg/mL
same,Solubility in H2O at 22-25°C,water,10000 µg/mL
same,Average Weight Change,B16 Melanoma [4]; 2 mg/kg/day ip,-0.7 g
same,Effect MST % T/C,B16 Melanoma [4]; 2 mg/kg/day ip,153 % T/C
same,MST Days,B16 Melanoma [4]; 2 mg/kg/day ip,31.5 days
same,Average Weight Change,B16 Melanoma [4]; 4 mg/kg/day ip,-2.0 g
same,Effect MST % T/C,B16 Melanoma [4]; 4 mg/kg/day ip,158 % T/C
same,MST Days,B16 Melanoma [4]; 4 mg/kg/day ip,32.5 days
same,Average Weight Change,B16 Melanoma [4]; 8 mg/kg/day ip,-0.9 g
same,Effect MST % T/C,B16 Melanoma [4]; 8 mg/kg/day ip,180 % T/C
same,MST Days,B16 Melanoma [4]; 8 mg/kg/day ip,37.0 days
same,Average Weight Change,B16 Melanoma [4]; 16 mg/kg/day ip,-1.3 g
same,Effect MST % T/C,B16 Melanoma [4]; 16 mg/kg/day ip,234 % T/C
same,MST Days,B16 Melanoma [4]; 16 mg/kg/day ip,48.0 days
same,Survivors Day 10 (60),"B16 Melanoma [4]; Day 10, 2 mg/kg/day ip",9/10
same,Survivors Day 10 (60),"B16 Melanoma [4]; Day 10, 4 mg/kg/day ip",9/10
same,Survivors Day 10 (60),"B16 Melanoma [4]; Day 10, 8 mg/kg/day ip",9/10
same,Survivors Day 10 (60),"B16 Melanoma [4]; Day 10, 16 mg/kg/day ip",8/10
same,Survivors Day 10 (60),"B16 Melanoma [4]; Day 60 (figure in parentheses), 16 mg/kg/day ip",2
